We go through one compound from patent US20120202814A1, “COMPOUNDS WITH DDX3 INHIBITORY ACTIVITY AND USES THEREOF” (UNIVERSITÀ DEGLI STUDI DI SIENA, priority 2009, published 2012).

Test [1] deals with T1, human DDX3 (ATPase activity) (Homo sapiens, UniProt O00571).
T1 construct: made in house; host or cells: E. coli
Nature of the test: Human DDX3 ATPase activity assay (luciferase-based luminescence). Format: biochemical. The settings on record: ATPase activity; read-out: ATPase ID50. As to the method:
ATPase activity was tested with a luciferase-based luminescence assay (Easylite-Kinase, Perkin Elmer) on 96 wells microtiter plates. Briefly, recombinant purified human DDX3 (50-100 ng) was incubated in a 15 μL total reaction volume with reaction buffer (25 mM TrisHCl pH 7.5, 5 mM MgCl2), in the presence of increasing amounts of ATP and/or different combinations of ATP and the inhibitor to be tested. Reference curves in the absence of inhibitor (giving the 100% of enzymatic activity) and in the absence of enzyme (giving the baseline), were also included in each experiment. Reading was performed with a Microbeta Trilux (Perkin Elmer) luminometer, according to the manufacturer's protocol.
ATPase reactions were performed as described, in the presence of increasing amounts of inhibitor and variable ATP concentrations. Variations of the initial velocities of the reaction as a function of ATP concentrations in the absence or presence of 4 were analyzed with the equation: […]
Variation of the % inhibition as a function of compound FE15 at different ATP concentrations were fitted to the equation for cooperative binding: […]
where Vmax is the apparent maximal rate of the reaction in the absence of the inhibitor, [I] is the variable inhibitor concentration, n is the cooperativity index and Ki(app) is the apparent inhibition constant. Comparatively, fitting was done with the same Eq. (2) where n was kept fixed at the value of 1 (non-cooperativity hypothesis). F test was used to compare the two fittings and p value was calculated.
(§1) Human recombinant DDX3 was cloned, expressed and purified as described (Franca et al. Proteins 2007, 67, 1128-37).
The anti-DDX3 activity of the compounds of the invention was evaluated by in vitro ATPase activity assay using the recombinant human DDX3 protein produced in E. coli. The potency of inhibition (Ki) for each molecule was calculated, representing the concentration of the inhibitor able to reduce the DDX3 ATPase activity by 50%

In test [2] the target is T2, human DDX3 (helicase activity) (Homo sapiens, UniProt O00571).
T2 construct: made in house
The test is described as follows: Human DDX3 helicase activity assay (ds to ss nucleic acid unwinding). In kind it is biochemical. As to the method: The helicase activity of DDX3 wt and mutant forms was monitored by measuring the conversion of a double stranded (ds) DNA or RNA (labelled at the 5′-end of one strand with a 6-FAM fluorescent group or P^32, respectively) into single stranded (ss) nucleic acid. Reactions were performed in 50 mM TrisHCl pH 7.5, 1 mM DTT, 0.2 mg/ml BSA, 5% glycerol and 100 μM ATP, 10 mM MgCl2 at 37° C. degrees for 10′ and stopped by adding EDTA 50 mM pH 8. Products were separated through non-denaturating 8% PAGE at 5 W for 2 hours in TBE buffer at 4° C. Substrates and products were quantified by laser scanning densitometry (Thyphoon-TRIO, GE Healthcare).
as §1
Compounds were obtained by application of a virtual docking protocol on the RNA-binding site identified in the homology model developed in the present invention. These compounds were commercially available (EI-compounds in Table 4). A few other compounds (25-31, EXAMPLE 6) were rationally designed to target the above mentioned RNA-binding site and then synthesized. All the compounds were tested for anti-helicase activity.

T2 sequence (O00571 whole entry): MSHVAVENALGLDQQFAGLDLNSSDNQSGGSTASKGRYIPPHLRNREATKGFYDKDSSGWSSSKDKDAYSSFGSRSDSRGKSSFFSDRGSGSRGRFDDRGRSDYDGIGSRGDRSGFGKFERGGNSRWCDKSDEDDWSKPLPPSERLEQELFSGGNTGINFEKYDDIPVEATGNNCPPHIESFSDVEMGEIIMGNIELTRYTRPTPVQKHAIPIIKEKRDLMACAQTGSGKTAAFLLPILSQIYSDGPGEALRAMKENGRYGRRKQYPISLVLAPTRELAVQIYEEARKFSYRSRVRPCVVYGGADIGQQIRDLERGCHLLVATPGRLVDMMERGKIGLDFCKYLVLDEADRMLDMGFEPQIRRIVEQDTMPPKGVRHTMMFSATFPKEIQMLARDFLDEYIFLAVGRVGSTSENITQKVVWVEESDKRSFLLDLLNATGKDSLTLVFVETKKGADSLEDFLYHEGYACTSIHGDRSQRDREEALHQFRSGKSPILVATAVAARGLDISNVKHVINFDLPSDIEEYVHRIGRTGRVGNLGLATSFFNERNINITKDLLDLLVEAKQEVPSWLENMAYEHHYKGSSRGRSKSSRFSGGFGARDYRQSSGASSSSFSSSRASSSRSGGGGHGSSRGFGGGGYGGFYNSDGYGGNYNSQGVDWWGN
T1 sequence (O00571 whole entry): as above

With `Cc1ccccc1NC(=O)Nc1cccc([N+](=O)[O-])c1` [Compound 25, 1-(3-nitrophenyl)-3-o-tolylurea], the IC50 in test [1] was 11 µM. Moreover, in test [2] (helicase versus ATPase ID50), the “fold higher potency against the helicase with respect to the ATPase activity” value is listed as 11 fold. Further, the “fold improvement in anti-helicase activity with respect to EI01” value in test [2] (ratio of helicase ID50) is 245 fold.
